Measured values reported in patent US11702707B2, “Systems and methods for assessing contamination of drinking water” (priority 2011, dated 2023).

Tested on: HepG2 cells
Assay: FACTORIAL transcription factor signature assay (reporter transcription units) in a test cell system
Type: cell-based, human

Compound | most affected reporter transcription units (transcription factor signature) (24 hours after exposure) | also measured
lipopolysaccharide [endotoxin (lipopolysaccharide, LPS)] | NF-kappaB and Interferon-specific response element (ISRE) | 
triphenyltin | cellular heat shock response element (HSE), the peroxisome proliferator activating protein (PPAR) and the oxidative stress-specific RTU, NRF-2/ARE | 
O=Cc1c2[nH]c3ccccc3c2cc2[nH]c3ccccc3c12 [6-formylindolo-[3,2-b]carbazole] |  | specific pathway shown by fluorescence peak manifestation (transcription factor signature) (HepG2 cells, after 24 hours exposure): Ahryloxane receptor (AhR)
[Cl][Cd][Cl] [cadmium dichloride] |  | reporter elements with most pronounced cellular response (transcription factor signature) (24 hours after exposure, 2.5 μM, 0.6 μM, 0.16 μM and 0.04 μM): most pronounced for the metallothionein response element (MRE) and the heat shock-response element (HSE)
